# Source: US20050154042A1, “N-alkyl pyrroles as HMG-CoA reductase inhibitors” (priority 2003, published 2005)
row,SMILES,melting point [°C]
1,"CC(C)n1c(CC[C@@H](O)C[C@@H](O)CC(=O)[O-])c(-c2ccc(F)cc2)c(-c2ccccc2)c1C(=O)NCc1cccc(C#N)c1.[Na+] [Example 146, (3R,5R)-7-[5-(3-Cyano-benzylcarbamoyl)-3-(4-fluoro-phenyl)-1-isopropyl-4-phenyl-1H-pyrrol-2-yl]-3,5-dihydroxy-heptanoic Acid Sodium Salt]",180 to 182
2,"CC(C)n1c(/C=C/[C@@H](O)C[C@@H](O)CC(=O)[O-])c(-c2ccc(F)cc2)c(-c2ccccc2)c1C(=O)NCc1cccc(C#N)c1.[Na+] [Example 147, (3R,5S)-7-[5-(3-Cyano-benzylcarbamoyl)-3-(4-fluoro-phenyl)-1-isopropyl-4-phenyl-1H-pyrrol-2-yl]-3,5-dihydroxy-hept-6-enoic Acid Sodium Salt]",208 to 210
3,"CC(C)OC(=O)c1ccc(CNC(=O)c2c(-c3ccccc3)c(-c3ccc(F)cc3)c(CC[C@@H](O)C[C@@H](O)CC(=O)[O-])n2C(C)C)cc1.[Na+] [Example 148, (3R,5R)-7-[3-(4-Fluoro-phenyl)-5-(4-isopropoxycarbonyl-benzylcarbamoyl)-1-isopropyl-4-phenyl-1H-pyrrol-2-yl]-3,5-dihydroxy-heptanoic Acid Sodium Salt]",199 to 201
4,"CC(C)OC(=O)c1ccc(CNC(=O)c2c(-c3ccccc3)c(-c3ccc(F)cc3)c(/C=C/[C@@H](O)C[C@@H](O)CC(=O)[O-])n2C(C)C)cc1.[Na+] [Example 149, (3R,5S)-7-[3-(4-Fluoro-phenyl)-5-(4-isopropoxycarbonyl-benzylcarbamoyl)-1-isopropyl-4-phenyl-1H-pyrrol-2-yl]-3,5-dihydroxy-hept-6-enoic Acid Sodium Salt]",222 to 224
5,"COC(=O)c1cccc(CNC(=O)c2c(-c3ccccc3)c(-c3ccc(F)cc3)c(/C=C/[C@@H](O)C[C@@H](O)CC(=O)[O-])n2C(C)C)c1.[Na+] [Example 151, (3R,5S)-7-[3-(4-Fluoro-phenyl)-1-isopropyl-5-(3-methoxycarbonyl-benzylcarbamoyl)-4-phenyl-1H-pyrrol-2-yl]-3,5-dihydroxy-hept-6-enoic Acid Sodium Salt]",171 to 174
6,"COc1ccc([C@H](C)NC(=O)c2c(-c3ccc(F)cc3)c(-c3ccc(F)cc3)c(CC[C@@H](O)C[C@@H](O)CC(=O)[O-])n2C(C)C)cc1.[Na+] [Example 152, (3R,5R)-7-{3,4-Bis-(4-fluoro-phenyl)-1-isopropyl-5-[(S)—I-(4-methoxy-phenyl)-ethylcarbamoyl]-1H-pyrrol-2-yl]-3,5-dihydroxy-heptanoic Acid Sodium Salt]",227 to 229
7,"COc1ccc([C@@H](C)NC(=O)c2c(-c3ccc(F)cc3)c(-c3ccc(F)cc3)c(CC[C@@H](O)C[C@@H](O)CC(=O)[O-])n2C(C)C)cc1.[Na+] [Example 154, (3R,5R)-7-{3,4-Bis-(4-fluoro-phenyl)-1-isopropyl-5-[(R)-1-(4-methoxy-phenyl)-ethylcarbamoyl]-1H-pyrrol-2-yl}-3,5-dihydroxy-heptanoic Acid Sodium Salt]",225 to 227
8,"COc1ccc([C@@H](C)NC(=O)c2c(-c3ccc(F)cc3)c(-c3ccc(F)cc3)c(/C=C/[C@@H](O)C[C@@H](O)CC(=O)[O-])n2C(C)C)cc1.[Na+] [Example 155, (3R,5S)-7-{3,4-Bis-(4-fluoro-phenyl)-1-isopropyl-5-[(R)-1-(4-methoxy-phenyl)-ethylcarbamoyl]-1H-pyrrol-2-yl)-3,5-dihydroxy-hept-6-enoic Acid Sodium Salt]",255 to 257
9,"CNC(=O)c1c(-c2ccccc2)c(-c2ccc(F)cc2)c(CC[C@@H](O)C[C@@H](O)CC(=O)[O-])n1C(C)C.[Na+] [Example 156, (3R,5R)-7-[3-(4-Fluoro-phenyl)-1-isopropyl-5-methylcarbamoyl-4-phenyl-1H-pyrrol-2-yl]-3,5-dihydroxy-heptanoic Acid Sodium Salt]",238 to 240
10,"CNC(=O)c1c(-c2ccccc2)c(-c2ccc(F)cc2)c(/C=C/[C@@H](O)C[C@@H](O)CC(=O)[O-])n1C(C)C.[Na+] [Example 157, (3R,5S)-7-[3-(4-Fluoro-phenyl)-1-isopropyl-5-methylcarbamoyl-4-phenyl-1H-pyrrol-2-yl]-3,5-dihydroxy-hept-6-enoic Acid Sodium Salt]",224 to 226
11,"CCNC(=O)c1c(-c2ccccc2)c(-c2ccc(F)cc2)c(CC[C@@H](O)C[C@@H](O)CC(=O)[O-])n1C(C)C.[Na+] [Example 158, (3R,5R)-7-[5-Ethylcarbamoyl-3-(4-fluoro-phenyl)-1-isopropyl-4-phenyl-1H-pyrrol-2-yl]-3,5-dihydroxy-heptanoic Acid Sodium Salt]",203 to 205
12,"CCNC(=O)c1c(-c2ccccc2)c(-c2ccc(F)cc2)c(/C=C/[C@@H](O)C[C@@H](O)CC(=O)[O-])n1C(C)C.[Na+] [Example 159, (3R,5S)-7-[5-Ethylcarbamoyl-3-(4-fluoro-phenyl)-1-isopropyl-4-phenyl-1H-pyrrol-2-yl]-3,5-dihydroxy-hept-6-enoic Acid Sodium Salt]",226 to 228
13,"CC(C)n1c(/C=C/[C@@H](O)C[C@@H](O)CC(=O)[O-])c(-c2ccc(F)cc2)c(-c2ccccc2)c1C(N)=O.[Na+] [Example 160, (3R,5S)-7-[5-Carbamoyl-3-(4-fluoro-phenyl)-1-isopropyl-4-phenyl-1H-pyrrol-2-yl]-3,5-dihydroxy-hept-6-enoic Acid Sodium Salt]",238 to 240
14,"CC(C)n1c(CC[C@@H](O)C[C@@H](O)CC(=O)[O-])c(-c2ccc(F)cc2)c(-c2ccccc2)c1C(N)=O.[Na+] [Example 161, (3R,5R)-7-[5-Carbamoyl-3-(4-fluoro-phenyl)-1-isopropyl-4-phenyl-1H-pyrrol-2-yl]-3,5-dihydroxy-heptanoic Acid Sodium Salt]",212 to 214
15,"CC(C)n1c(CC[C@@H](O)C[C@@H](O)CC(=O)[O-])c(-c2ccc(F)cc2)c(-c2ccc(F)cc2)c1C(=O)NCc1ccc(C(=O)[O-])cc1.[Na+].[Na+] [Example 162, (3R,5R)-4-({[5-(6-Carboxy-3,5-dihydroxy-hexyl)-3,4-bis-(4-fluoro-phenyl)-1-isopropyl-1H-pyrrole-2-carbonyl]-amino}-methyl)-benzoic Acid Disodium Salt]",298 to 300
16,"CC(C)n1c(CC[C@@H](O)C[C@@H](O)CC(=O)[O-])c(-c2ccc(F)cc2)c(-c2ccccc2)c1C(=O)NCc1cccc(C(=O)[O-])c1.[Na+].[Na+] [Example 163, (3R,5R)-3-({[5-(6-Carboxy-3,5-dihydroxy-hexyl)-4-(4-fluoro-phenyl)-1-isopropyl-3-phenyl-1H-pyrrole-2-carbonyl]-amino}-methyl)-benzoic Acid Disodium Salt]",240 to 245
17,"CC(C)n1c(CC[C@@H](O)C[C@@H](O)CC(=O)[O-])c(-c2ccc(F)cc2)c(-c2ccccc2)c1C(=O)NCc1ccc(C(=O)[O-])cc1.[Na+].[Na+] [Example 164, (3R,5R)-4-({[5-(6-Carboxy-3,5-dihydroxy-hexyl)-4-(4-fluoro-phenyl)-1-isopropyl-3-phenyl-1H-pyrrole-2-carbonyl]-amino}-methyl)-benzoic Acid Disodium Salt]",255 to 260
18,"Cc1ccnc(NC(=O)c2c(-c3ccc(F)cc3)c(-c3ccc(F)cc3)c(C=O)n2C(C)C)n1 [Example 179, 3,4-bis-(4-fluoro-phenyl)-5-formyl-1-isopropyl-1H-pyrrole-2-carboxylic Acid (4-methyl-pyrimidin-2-yl)-amide]",173 to 175
